Consider six compounds from US11472778B2, “Hepatitis C virus NS3/4A protease inhibitors” (priority 2017, dated 2022).

What all share (assay type): biochemical, Hepatitis C virus
The target in assay [1] is T1, GT1a D168A NS3/4A protease (UniProt P27958, C1185S/D1194A, species not given).
T1 construct: P4/P4-P5 modified macrocycles
The following applies: read-out: Ki (nM) D168A; Table 6; P4/P4-P5 modified macrocycles. A digest of the protocol: (§1)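 NS3/4A protease (2 nM; wild-type GT1a or D168A) pre-incubated 1 h at room temperature with increasing inhibitor in 50 mM Tris pH 7.5, 5% glycerol, 10 mM DTT, 0.6 mM LDAO, 4% DMSO. Ki from three independent data sets per construct; ΔG=RTlnKi.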

Assay [2] deals with GT1a D168A NS3/4A protease. The following applies: Table 6; with respect to GT1a wild-type. In a few lines:
as §1

For assay [3], the target named is T2, wild-type GT1a NS3/4A protease (UniProt P27958, C1185S, species not given).
T2 construct: P4/P4-P5 modified macrocycles
Conditions: read-out: Ki (nM) GT1a WT; Table 6; P4/P4-P5 modified macrocycles. A digest of the protocol:
as §1

One may read the Ki as the dissociation constant of the complex between target and ligand, obtained from inhibition or displacement. For the compound `COc1ccc2nc(C)c(O[C@@H]3C[C@H]4C(=O)N[C@]5(C(=O)NS(=O)(=O)C6(C)CC6)C[C@H]5/C=C\CCCCC[C@H](NC(=O)OC5(C)CCCC5)C(=O)N4C3)nc2c1` [Compound P4-3, 1-methylcyclopentyl ((2R,6S,13aS,14aR,16aS,Z)-2-((7-methoxy-3-methylquinoxalin-2-yl)oxy)-14a-(((1-methylcyclopropyl)sulfonyl)carbamoyl)-5,16-dioxo-1,2,3,5,6,7,8,9,10,11,13a,14,14a,15,16,16a-hexadecahydrocyclopropa[e]pyrrolo[1,2-a][1,4]diazacyclopentadecin-6-yl)carbamate], the Ki stood at 16 nM in assay [1] and 1.78 ± 0.3 nM in assay [3]. Moreover, the “Ki (Fold Change) D168A” value in assay [2] is given as “(9) fold”.
In the case of `COC(=O)N[C@H](C(=O)N[C@H]1CCCCC/C=C\[C@@H]2C[C@@]2(C(=O)NS(=O)(=O)C2(C)CC2)NC(=O)[C@@H]2C[C@@H](Oc3nc4cc(OC)ccc4nc3C)CN2C1=O)C(C)(C)C` [Compound P4-P5-1, Methyl ((S)-1-(((2R,6S,13aS,14aR,16aS,Z)-2-((7-methoxy-3-methylquinoxalin-2-yl)oxy)-14a-(((1-methylcyclopropyl)sulfonyl)carbamoyl)-5,16-dioxo-1,2,3,5,6,7,8,9,10,11,13a,14,14a,15,16,16a-hexadecahydrocyclopropa[e]pyrrolo[1,2-a][1,4]diazacyclopentadecin-6-yl)amino)-3,3-dimethyl-1-oxobutan-2-yl)carbamate], the Ki stood at 201 ± 15 nM in assay [1] and 29.5 nM in assay [3]. Also, the “Ki (Fold Change) D168A” value in assay [2] is reported as “(8) fold”.
Taken in the same sequence, the figures for `COc1ccc2nc(C)c(O[C@@H]3C[C@H]4C(=O)N[C@]5(C(=O)NS(=O)(=O)C6(C)CC6)C[C@H]5/C=C\CCCCC[C@H](NC(=O)[C@@H](NC(C)=O)C(C)(C)C)C(=O)N4C3)nc2c1` [Compound P4-P5-2] were 215 ± 16 nM, 23.9 ± 1.7 nM and “(9) fold”.
Turning to `COC(=O)N[C@H](C(=O)N[C@H]1CCCCC/C=C\[C@@H]2C[C@@]2(C(=O)NS(=O)(=O)C2(C)CC2)NC(=O)[C@@H]2C[C@@H](Oc3nc4cc(OC)ccc4nc3C)CN2C1=O)C(C)C` [Compound P4-P5-3, Methyl ((S)-1-(((2R,6S,13aS,14aR,16aS,Z)-2-((7-methoxy-3-methylquinoxalin-2-yl)oxy)-14a-(((1-methylcyclopropyl)sulfonyl)carbamoyl)-5,16-dioxo-1,2,3,5,6,7,8,9,10,11,13a,14,14a,15,16,16a-hexadecahydrocyclopropa[e]pyrrolo[1,2-a][1,4]diazacyclopentadecin-6-yl)amino)-3-methyl-1-oxobutan-2-yl)carbamate], the Ki in assay [1] was 102 ± 6.8 nM; in assay [3], 13 ± 0.8 nM. Also, in assay [2], the “Ki (Fold Change) D168A” value is on record as “(8) fold”.
On to `COc1ccc2nc(C)c(O[C@@H]3C[C@H]4C(=O)N[C@]5(C(=O)NS(=O)(=O)C6(C)CC6)C[C@H]5/C=C\CCCCC[C@H](NC(=O)[C@@H](NC(C)=O)C(C)C)C(=O)N4C3)nc2c1` [Compound P4-P5-4], for which the inhibitory constant (Ki) in assay [1] was determined as 141 ± 18 nM; in assay [3], 11.1 ± 0.5 nM. Further, the “Ki (Fold Change) D168A” value in assay [2] is reported as “(13) fold”.
Taken in the same sequence, the figures for `COC(=O)N[C@H](C(=O)N[C@H]1CCCCC/C=C\[C@@H]2C[C@@]2(C(=O)NS(=O)(=O)C2(C)CC2)NC(=O)[C@@H]2C[C@@H](Oc3nc4cc(OC)ccc4nc3C)CN2C1=O)C1CCCC1` [Compound P4-P5-5, Methyl ((S)-1-cyclopentyl-2-(((2R,6S,13aS,14aR,16aS,Z)-2-((7-methoxy-3-methylquinoxalin-2-yl)oxy)-14a-(((1-methylcyclopropyl)sulfonyl)carbamoyl)-5,16-dioxo-1,2,3,5,6,7,8,9,10,11,13a,14,14a,15,16,16a-hexadecahydrocyclopropa[e]pyrrolo[1,2-a][1,4]diazacyclopentadecin-6-yl)amino)-2-oxoethyl)carbamate] were 31.6 ± 2.1 nM, 3.54 ± 0.13 nM and “(9) fold”.
